Key:
CXCR3 on HMEC-1 cells = target: T1, CXCR3 on HMEC-1 cells (Homo sapiens, UniProt P49682); experiment: Flow cytometry binding of biotin-tagged peptide to HMEC-1 cells
T1 construct: HMEC-1 cells express CXCR3; endogenous in cells; host or cells: HMEC-1 (human dermal microvascular endothelial cells)
T1 sequence (P49682 1-415 isoform P49682-2): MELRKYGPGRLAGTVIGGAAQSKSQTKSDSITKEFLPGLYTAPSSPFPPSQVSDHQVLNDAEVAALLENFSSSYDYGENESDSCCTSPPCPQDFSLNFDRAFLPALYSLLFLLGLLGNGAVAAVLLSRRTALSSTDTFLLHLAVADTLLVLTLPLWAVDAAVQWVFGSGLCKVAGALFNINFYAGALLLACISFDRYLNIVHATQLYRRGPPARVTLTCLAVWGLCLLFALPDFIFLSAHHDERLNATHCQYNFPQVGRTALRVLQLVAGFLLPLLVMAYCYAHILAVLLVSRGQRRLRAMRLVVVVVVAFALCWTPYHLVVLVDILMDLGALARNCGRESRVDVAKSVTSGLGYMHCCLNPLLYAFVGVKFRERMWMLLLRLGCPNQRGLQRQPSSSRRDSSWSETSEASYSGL
Method: In the various experiments described below, unless otherwise noted, Biotin labeling was accomplished according to the following procedure. Sulfo-NHS-LC-Biotin (Thermo Scientific 21327) was prepared to result in a 10 mM solution of Biotin. IP-10, IP-10dp or anti-CXCR3 neutralizing antibody were dissolved in PBS according to result in a 20-fold molar excess of biotin reagent to give a 4-6 biotin groups per peptide molecule. The biotin reagent and IP-10 and/or IP-10dp was mixed and incubated on ice for 2 hours. Appropriate controls were used to determine the levels of biotin incorporation. HMEC-1 cells were washed in ice-cold PBS (pH 8) to remove amine-containing media and proteins. Cells were suspended and Sulfo-NHS-LC-Biotin label peptide was added. Mixture was incubated at 4° C. to reduce active internalization of the biotin reagent for 30 minutes. Cells were then washed three times in PBS+100 mM glycine to quench and remove excess biotin. Cells were then incubated with streptavidin conjugated with FITC and analyzed on a BD FACSCalbur flow cytometer.
To determine whether IP-10dp binds to CXCR3 on human dermal microvascular endothelial cells, we analyzed the ability of Sulfo-LC-Biotin tagged IP-10 and IP-10dp to bind to H MEC-1 cells using flow cytometery. […] The cells were then incubated with FITC conjugated with streptavidin, and then analyzed on a BD FACSCalbur flow cytometer. […]

HMEC-1 cells [1] = experiment: Tube formation on growth factor reduced Matrigel; format: cell-based, human
Method: To determine whether the IP-10 peptide is able to inhibit tube formation, HMEC-1 cells were grown on growth factor reduced (“GFR”) Matrigel in the presence of VEGF165, IP-10 and/or IP-10dp and the cultures inspected and compared to asses the relative degree of tube formation according to the following procedure. GFR Matrigel 10 μl/well (μ-angiogenesis slide, Ibidi), was incubated for 15 minutes at 37° C. HMEC-1 cells (10,000 cells/well) were re-suspended in 1.0% FBS MDCB131 media containing VEGF (75 ng/ml), IP-10 (300 ng/ml) and IP-10dp (10 μM) and or anti-CXCR3 neutralizing antibody. Treated cells (1×10^4 cells/well) were added to 24-well culture plates coated with growth factor reduced Matrigel and incubated for 24 hours at 37° C. to allow tube formation.
The cells cultures were then imaged for tube formation using an Olympus IX70 microscope equipped with a Hammastu camera using MetaView™ software (Universal Imaging Corporation, Downington, Pa.). FIG. 4A is a grid of six labeled black and white photographs taken at this 24 hour point with 4× magnification showing the following representative cell cultures from upper left to lower right: a control culture having no treatment, a culture having treatment only with IP-10, a culture having treatment only with IP-10dp, a culture having treatment only with VEGF, a culture having treatment with combined VEGF and IP-10, and a culture having treatment with combined VEGF and IP-10dp.
Analysis of tube formation was preformed using MetaMorph (obtained from Universal Imaging Corporation, Downington, Pa.), and the results reported in the graph of FIG. 4 are shown as a percent of the no-treatment control. The data reported therein are of N=6 and normalized to no treatment (average±SEM), with *P<0.05. As shown by the graph, IP-10 peptide is able to inhibit tube formation. In particular, after incubation for 24 hours, the HMEC-1 cells cultures were able to form tubes in the presence or absence of VEGF165 (compare the photographic images in FIG. 4A).

HMEC-1 cells [2] = experiment: Tube dissociation assay on GFR-Matrigel; format: cell-based, human; details: IP-10dp 10 μM
Method: For this tube dissociation assay, HMEC-1 cells were first re-suspended in 1% FBS MCDB131 media containing VEGF (75 ng/ml) and incubated on GFR-Matrigel for 24 hrs at 37° C. to allow tube formation (the average result reflected labeled “24 VEGF . . . ” in FIG. 5B). The media was removed and replaced with combinations of VEGF (75 ng/ml), IP-10 (300 ng/ml), or IP-10dp (10 μM) then incubated for another 24 hours. After 48 hours, tubes were still present in the controls treated only with VEGF (labeled 48 hr VEGF in FIG. 5B).
The cells cultures were imaged to assess tube formation using similar procedures to that described above for Experiment 3. […]
Again, quantification of the endothelial tube area for the various cell cultures was determined using MetaMorph, and the data reported in the graph are of at least N=6 and normalized to no treatment (average±SEM), with *P<0.05.

binding to HMEC-1 cells (CXCR3 on HMEC-1 cells; Sulfo-LC-Biotin tagged peptide, streptavidin-FITC, flow cytometry): binds to human endothelial cells
fluorescence intensity of binding to CXCR3 on HMEC-1 cells compared with full length IP-10 (CXCR3 on HMEC-1 cells; relative to control, biotin-tagged): slightly lower fluorescence intensity
Sequence: PESKAIKNLLKAVSKEMSKRSP (IP-10dp; listed as Homo sapiens) [synthetic fragment of IP-10 comprising residues 78-98, the C-terminal α-helical domain]
tubes formed in the presence of VEGF165 (HMEC-1 cells [1]; IP-10dp 10 μM plus VEGF 75 ng/ml, 24 hours): significant reduction
tubes formed compared to control (HMEC-1 cells [1]; IP-10dp 10 μM, no VEGF, 24 hours): significant reduction in tubes formed
inhibition of tube formation compared with full length IP-10 (HMEC-1 cells [1]; presence and absence of VEGF, IP-10dp 10 μM vs IP-10 300 ng/ml): slightly better
endothelial cords following treatment (HMEC-1 cells [2]; 24-48 hrs): significant decrease in endothelial cords
dissociation of newly formed tubes (HMEC-1 cells [2]; treatment 24-48 hrs, presence and absence of VEGF, IP-10 300 ng/ml): induce dissociation of newly formed tubes

Source: US8734775B2, “Chemokine derived peptides that bind with chemokine receptor CXCR3 and uses for chronic wound and angiogenesis inhibition treatments” (University of Pittsburgh, priority 2011, dated 2014)
